# Measured values published in ChEMBL document CHEMBL1201862, “PubChem BioAssay data set” (2004).
#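 Results reflect a 48-hour exposure of cells in 96-well plates to compound at five concentrations. GI50: concentration for 50% inhibition of growth.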 Activity calls are given as the source filed them. Cut-off read from the data, not from the text of the source: active = GI50 up to about 1.1 µM and inactive = higher.
# Columns and labels:
# Assay in all cases: DTP human tumour cell line panel, 48 h
# ACHN = tested on: ACHN
# HL-60 = tested on: HL-60
# HOP-62 = tested on: HOP-62
# HOP-92 = tested on: HOP-92
# Hs-578T = tested on: Hs-578T
# IGROV-1 = tested on: IGROV-1
# K562 = tested on: K562
# MDA-MB-231 = tested on: MDA-MB-231
# NCI-H23 = tested on: NCI-H23
# NCI-H460 = tested on: NCI-H460
# NCI/ADR-RES = tested on: NCI/ADR-RES
# OVCAR-4 = tested on: OVCAR-4
# SF-539 = tested on: SF-539
# SK-MEL-28 = tested on: SK-MEL-28
# SK-MEL-5 = tested on: SK-MEL-5
# SR = tested on: SR
# T47D = tested on: T47D
# U-251 = tested on: U-251
# UACC-62 = tested on: UACC-62
# UO-31 = tested on: UO-31
SMILES,GI50 (ACHN),GI50 (HL-60),GI50 (HOP-62),GI50 (HOP-92),GI50 (Hs-578T),GI50 (IGROV-1),GI50 (K562),GI50 (MDA-MB-231),GI50 (NCI-H23),GI50 (NCI-H460),GI50 (NCI/ADR-RES),GI50 (OVCAR-4),GI50 (SF-539),GI50 (SK-MEL-28),GI50 (SK-MEL-5),GI50 (SR),GI50 (T47D),GI50 (U-251),GI50 (UACC-62),GI50 (UO-31)
c1ccc(/N=C2\SC(=NNc3ccccc3)S\C2=N/c2ccccc2)cc1,> 100 µM (inactive),> 100 µM (inactive),44.5 µM (inactive),70.8 µM (inactive),32.8 µM (inactive),54.2 µM (inactive),> 100 µM (inactive),> 100 µM (inactive),> 100 µM (inactive),15.5 µM (inactive),40.5 µM (inactive),> 100 µM (inactive),62.5 µM (inactive),> 100 µM (inactive),44.9 µM (inactive),> 100 µM (inactive),74.1 µM (inactive),38.1 µM (inactive),4.13 µM (inactive),> 100 µM (inactive)
CCN(CC)COC(=S)S,> 100 µM (inactive),< 0.01 µM (active),48.8 µM (inactive),> 100 µM (inactive),> 100 µM (inactive),89.7 µM (inactive),38 µM (inactive),35.4 µM (inactive),> 100 µM (inactive),30.1 µM (inactive),> 88.1 µM (inactive),48.8 µM (inactive),90.6 µM (inactive),> 100 µM (inactive),21.6 µM (inactive),0.233 µM (active),> 100 µM (inactive),30.3 µM (inactive),> 83 µM (inactive),62.5 µM (inactive)
CSc1nc(NC2CCCC2)c2cc[nH]c2n1,64.7 µM (inactive),20 µM (inactive),> 100 µM (inactive),30.1 µM (inactive),53.1 µM (inactive),98.2 µM (inactive),32.9 µM (inactive),36.1 µM (inactive),91 µM (inactive),> 100 µM (inactive),71.1 µM (inactive),48.5 µM (inactive),> 100 µM (inactive),92 µM (inactive),35.2 µM (inactive),22.3 µM (inactive),61.1 µM (inactive),36.4 µM (inactive),23.5 µM (inactive),48.1 µM (inactive)
O=C(O)c1ccc2c(c1)Cc1cc([N+](=O)[O-])ccc1-2,> 100 µM (inactive),> 100 µM (inactive),> 100 µM (inactive),30.5 µM (inactive),76.9 µM (inactive),> 100 µM (inactive),73.5 µM (inactive),> 100 µM (inactive),> 100 µM (inactive),> 100 µM (inactive),> 100 µM (inactive),> 100 µM (inactive),> 100 µM (inactive),> 100 µM (inactive),> 100 µM (inactive),86.1 µM (inactive),> 100 µM (inactive),> 100 µM (inactive),> 100 µM (inactive),93.1 µM (inactive)
COC/C=C\[C@@]1(O)CCCC[C@@H]1CC(OC)OC,10.1 µM (inactive),6.98 µM (inactive),36.2 µM (inactive),> 100 µM (inactive),37.2 µM (inactive),32.5 µM (inactive),11.9 µM (inactive),> 100 µM (inactive),39.6 µM (inactive),33.3 µM (inactive),38.2 µM (inactive),31.8 µM (inactive),48.5 µM (inactive),37.4 µM (inactive),> 94.2 µM (inactive),37.3 µM (inactive),34.1 µM (inactive),31.8 µM (inactive),11.7 µM (inactive),32.1 µM (inactive)
CNC(=O)N(C1=NCC(C)S1)c1ccc(C)c(C)c1 (stereo not given),12 µM (inactive),1.17 µM (inactive),5.98 µM (inactive),5.78 µM (inactive),4.31 µM (inactive),8.89 µM (inactive),0.923 µM (active),12.1 µM (inactive),7.08 µM (inactive),3.36 µM (inactive),3.36 µM (inactive),13.6 µM (inactive),2.62 µM (inactive),8.49 µM (inactive),4.08 µM (inactive),3.67 µM (inactive),7.33 µM (inactive),3.59 µM (inactive),3.56 µM (inactive),8.26 µM (inactive)
C[C@]12CC/C(=N\O)C=C1CC[C@@H]1[C@@H]2CC[C@]2(C)C(=N/O)/C(=C/c3ccncc3)C[C@@H]12,18.7 µM (inactive),0.1 µM (active),41.2 µM (inactive),30.5 µM (inactive),86.5 µM (inactive),53.8 µM (inactive),26.4 µM (inactive),20.8 µM (inactive),31.5 µM (inactive),14.6 µM (inactive),21.2 µM (inactive),31.9 µM (inactive),31.8 µM (inactive),39.8 µM (inactive),7 µM (inactive),12.7 µM (inactive),19.7 µM (inactive),29.2 µM (inactive),16.4 µM (inactive),3.62 µM (inactive)
NS(=O)(=O)c1nnc(NS(=O)(=O)c2ccccc2[N+](=O)[O-])s1,> 100 µM (inactive),> 100 µM (inactive),> 100 µM (inactive),> 100 µM (inactive),> 100 µM (inactive),> 100 µM (inactive),> 100 µM (inactive),> 100 µM (inactive),> 100 µM (inactive),> 100 µM (inactive),> 100 µM (inactive),> 100 µM (inactive),> 100 µM (inactive),> 100 µM (inactive),> 100 µM (inactive),> 100 µM (inactive),> 100 µM (inactive),> 100 µM (inactive),> 100 µM (inactive),> 100 µM (inactive)
Nc1c(/C=C/c2cc3cc(C4=NCCN4)ccc3o2)[nH]c2cc(C3=NCCN3)ccc12,47.1 µM (inactive),29.6 µM (inactive),34.2 µM (inactive),99.8 µM (inactive),> 100 µM (inactive),39.1 µM (inactive),41.3 µM (inactive),34.1 µM (inactive),60.7 µM (inactive),32.7 µM (inactive),76.2 µM (inactive),47.1 µM (inactive),40 µM (inactive),32 µM (inactive),30.8 µM (inactive),43.7 µM (inactive),46.5 µM (inactive),38.3 µM (inactive),38 µM (inactive),40.6 µM (inactive)
CCc1nc(N)nc(N)c1-c1ccc(NCCN)c([N+](=O)[O-])c1,34.9 µM (inactive),3.99 µM (inactive),18.2 µM (inactive),27.6 µM (inactive),89.1 µM (inactive),8.97 µM (inactive),1.09 µM (active),20.2 µM (inactive),7.4 µM (inactive),2.75 µM (inactive),> 100 µM (inactive),20.7 µM (inactive),11.6 µM (inactive),> 59.3 µM (inactive),9.79 µM (inactive),4 µM (inactive),33.6 µM (inactive),9.08 µM (inactive),6.3 µM (inactive),> 100 µM (inactive)
CC(C)(C)C1CCC2c3c([nH]c4ccccc34)C3C(=O)N(c4cccc(Cl)c4)C(=O)C3C2C1 (stereo not given),9.33 µM (inactive),3.01 µM (inactive),0.518 µM (active),5.05 µM (inactive),23.7 µM (inactive),13.8 µM (inactive),2.44 µM (inactive),14.2 µM (inactive),8.49 µM (inactive),4.63 µM (inactive),13.6 µM (inactive),14.6 µM (inactive),17.5 µM (inactive),14.2 µM (inactive),13.5 µM (inactive),4.36 µM (inactive),9.16 µM (inactive),13.9 µM (inactive),12.9 µM (inactive),9.12 µM (inactive)
CCn1c2ccc(C(=O)CCCN(C)C)cc2c2cc(C(=O)CCCN(C)C)ccc21,0.759 µM (active),1.75 µM (inactive),0.701 µM (active),3.03 µM (inactive),2.32 µM (inactive),0.889 µM (active),2.05 µM (inactive),0.851 µM (active),1.61 µM (inactive),0.421 µM (active),4.93 µM (inactive),1.18 µM (inactive),0.805 µM (active),5.66 µM (inactive),4.69 µM (inactive),1.13 µM (inactive),10.2 µM (inactive),2.24 µM (inactive),7.59 µM (inactive),3.48 µM (inactive)
N#Cc1cc2c(n(C3OC(CO)C(O)C(O)C3O)c1=S)CCC2 (stereo not given),> 100 µM (inactive),> 100 µM (inactive),> 100 µM (inactive),> 100 µM (inactive),> 100 µM (inactive),> 100 µM (inactive),> 100 µM (inactive),> 100 µM (inactive),> 100 µM (inactive),> 100 µM (inactive),> 100 µM (inactive),> 100 µM (inactive),> 100 µM (inactive),> 100 µM (inactive),> 100 µM (inactive),> 100 µM (inactive),> 100 µM (inactive),> 100 µM (inactive),> 100 µM (inactive),> 100 µM (inactive)
